Patent publication US20250243194A1, “ANTAGONIST OF ADENOSINE RECEPTORS” (AdoRx Therapeutics Limited, priority 2022, published 2025)
Like-named read-outs stand apart in the source and are kept apart here.

What was measured:
[1] = molecular target: human Adenosine A2b receptor (Homo sapiens (Human), UniProt P29275); assay: Adenosine receptor TR-FRET binding assay (A2b); conditions: inhibition of binding of 30 nM CA200645; CHO cell membranes; Ki from IC50 by Cheng and Prusoff
Procedure: (§1) All FRET binding experiments were conducted at room temperature in white 384-well plates, in assay binding buffer containing 1× LabMed (Cisbio, France), 100 μg/mL saponin, 1% DMSO and 0.02% pluronic acid. Binding of the fluorescently labelled Adenosine receptor antagonist XAC (CA200645, FRET acceptor) to terbium-labelled A1, A2a, A2b and A3 adenosine receptors (FRET donors) was detected by time-resolved FRET due to the close proximity of the donor and acceptor in a binding event. To investigate the ability of unlabelled test compounds to bind to Adenosine A1, A2a, A2b and A3 receptors, dose response curves were constructed that determined the ability of a range of concentrations to inhibit the binding of 30 nM CA200645 to the A2b receptor and 100 nM CA200645 to the A1, A2a, and A3 receptor.
(§2) Serial dilution (1:3 dilutions) of test compounds in neat DMSO and transfer of a 400 nL sample of test compound into the assay plate was carried out using the Mosquito (TTP Labtech, UK). The compound samples were incubated for 2 hours at room temperature with a fixed concentration of CA200645 defined for each receptor (see above) and CHO cell membranes containing the human Adenosine A1 (0.5 μg/well), A2a (0.3 μg/well), A2b (1 μg/well) or A3 (1 μg/well) receptor in 40 μL of assay buffer. Total and non-specific binding of CA200645 was determined in the absence and presence of 10 μM XAC, respectively. Following 2 hours incubation, the level of CA200645 binding was detected on a Pherastar FSX (BMG Labtech, Germany) using standard TR-FRET settings. The terbium donor was excited with three laser flashes at a wavelength of 337 nm, and donor and acceptor emission was detected at 620 nm and 665 nm wavelengths, respectively. FRET ratios were obtained by multiplying the acceptor/donor ratio value by 10,000. Specific binding was determined by subtracting the non-specific binding FRET ratio from the total binding FRET ratio. Compound IC50 curves were analysed using GraphPad Prism 7.0 (GraphPad, USA) and Ki affinity values were determined from the obtained IC50 values using the method of Cheng and Prusoff.

[2] = molecular target: human Adenosine A1 receptor (Homo sapiens (Human), UniProt P30542); assay: Adenosine receptor TR-FRET binding assay (A1)
Sequence of human Adenosine A1 receptor (P30542 whole entry): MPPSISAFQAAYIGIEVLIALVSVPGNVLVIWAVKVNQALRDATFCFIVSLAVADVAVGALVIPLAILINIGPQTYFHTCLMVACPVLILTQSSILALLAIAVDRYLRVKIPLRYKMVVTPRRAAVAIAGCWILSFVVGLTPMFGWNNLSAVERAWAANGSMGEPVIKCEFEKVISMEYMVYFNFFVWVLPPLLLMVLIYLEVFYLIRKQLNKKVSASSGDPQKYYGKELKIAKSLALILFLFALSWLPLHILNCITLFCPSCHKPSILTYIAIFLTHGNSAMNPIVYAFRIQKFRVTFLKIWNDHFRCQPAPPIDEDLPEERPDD
Procedure: as §1, §2

[3] = molecular target: human Adenosine A2a receptor (Homo sapiens (Human), UniProt P29274); assay: Adenosine receptor TR-FRET binding assay (A2a)
Sequence of human Adenosine A2a receptor (P29274 whole entry): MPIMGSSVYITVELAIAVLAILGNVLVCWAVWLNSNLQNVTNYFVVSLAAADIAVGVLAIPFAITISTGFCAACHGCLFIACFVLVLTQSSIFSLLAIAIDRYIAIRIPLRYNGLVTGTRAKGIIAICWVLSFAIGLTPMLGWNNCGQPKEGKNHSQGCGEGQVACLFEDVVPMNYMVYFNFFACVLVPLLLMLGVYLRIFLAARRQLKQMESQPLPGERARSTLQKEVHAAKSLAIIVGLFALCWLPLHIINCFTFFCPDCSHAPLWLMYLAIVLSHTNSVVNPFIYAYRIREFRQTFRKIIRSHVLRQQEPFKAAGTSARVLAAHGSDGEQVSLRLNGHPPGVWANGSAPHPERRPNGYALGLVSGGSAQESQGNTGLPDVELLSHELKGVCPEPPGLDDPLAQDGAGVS
Procedure: as §1, §2

[4] = inhibition of binding of 100 nM CA200645, CHO cell membranes, Ki from IC50 by Cheng and Prusoff

Sequence of human Adenosine A2b receptor (P29275 whole entry): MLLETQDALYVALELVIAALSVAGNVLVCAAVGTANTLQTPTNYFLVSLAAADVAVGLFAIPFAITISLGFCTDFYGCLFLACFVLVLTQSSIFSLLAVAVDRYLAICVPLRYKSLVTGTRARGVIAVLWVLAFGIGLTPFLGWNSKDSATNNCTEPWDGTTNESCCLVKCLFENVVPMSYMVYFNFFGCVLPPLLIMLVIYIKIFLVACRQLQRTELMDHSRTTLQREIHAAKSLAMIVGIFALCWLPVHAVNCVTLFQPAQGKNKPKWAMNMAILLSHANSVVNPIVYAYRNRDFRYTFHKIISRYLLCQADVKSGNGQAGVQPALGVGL

Row | Compound | Ki [1] [nM] | Ki [2, 4] [nM] | Ki [3, 4] [nM] | Ki [2] [nM] | Ki [3] [nM]
1 | Cc1ncnc2ccc(-c3sc(NC(=O)N4CCN(C5CCN(C)CC5)CC4)nc3-c3cccc(C#N)c3)cc12 [Example 7.13, N-[4-(3-Cyanophenyl)-5-(4-methylquinazolin-6-yl)thiazol-2-yl]-4-(1-methyl-4-piperidyl)piperazine-1-carboxamide] | 4.8 | 125 | 1.01 | – | –
2 | CCc1ncnc2ccc(-c3sc(NC(=O)N4CC5(COC5)C4)nc3-c3cccc(C#N)c3)cc12 [Example 13, N-[4-(3-Cyanophenyl)-5-(4-ethylquinazolin-6-yl)thiazol-2-yl]-2-oxa-6-azaspiro[3.3]heptane-6-carboxamide] | 1.7 | 2 | 0.16 | – | –
3 | Cc1nc(C)c(-c2sc(NC(=O)N3CC4(COC4)C3)nc2-c2cccc(C#N)c2)o1 [Example 15, N-[4-(3-Cyanophenyl)-5-(2,4-dimethyloxazol-5-yl)thiazol-2-yl]-2-oxa-6-azaspiro[3.3]heptane-6-carboxamide] | 6.2 | 14 | 1.74 | – | –
4 | Cc1ncnc2ccc(-c3sc(NC(=O)N4CCC(N5CCOCC5)CC4)nc3-c3cccc(C#N)c3)cc12 [Example 7.14, N-[4-(3-Cyanophenyl)-5-(4-methylquinazolin-6-yl)thiazol-2-yl]-4-morpholino-piperidine-1-carboxamide] | 5.4 | 150 | 2.61 | – | –
5 | Cc1ncnc2ccc(-c3sc(NC(=O)N4CCC5(CC4)CN(C)CCO5)nc3-c3cccc(C#N)c3)cc12 [Example 7.10, N-[4-(3-Cyanophenyl)-5-(4-methylquinazolin-6-yl)thiazol-2-yl]-4-methyl-1-oxa-4,9-diazaspiro[5.5]undecane-9-carboxamide] | 2.8 | 12 | 0.42 | – | –
6 | Cc1ncnc2ccc(-c3sc(NC(=O)N4CC5(COCCN5)C4)nc3-c3cccc(C#N)c3)cc12 [Example 4.2, N-[4-(3-Cyanophenyl)-5-(4-methylquinazolin-6-yl)thiazol-2-yl]-8-oxa-2,5-diazaspiro[3.5]nonane-2-carboxamide] | 3 | – | – | 34 | 0.35
7 | Cc1ncnc2ccc(-c3sc(NC(=O)N4CCO[C@H](C(C)(C)O)C4)nc3-c3cccc(C#N)c3)cc12 (single isomer, unassigned) [Example 7.7b, (2S)—N-[4-(3-Cyanophenyl)-5-(4-methylquinazolin-6-yl)thiazol-2-yl]-2-(1-hydroxy-1-methyl-ethyl)morpholine-4-carboxamide or (2R)—N-[4-(3-cyanophenyl)-5-(4-methylquinazolin-6-yl)thiazol-2-yl]-2-(1-hydroxy-1-methyl-ethyl)morpholine-4-carboxamide] | 1.5 | 9 | 0.2 | – | –
8 | Cc1ncnc2ccc(-c3sc(NC(=O)N4CCN(CCO)CC4)nc3-c3cccc(C#N)c3)cc12 [Example 7.27, N-[4-(3-Cyanophenyl)-5-(4-methylquinazolin-6-yl)thiazol-2-yl]-4-(2-hydroxyethyl)piperazine-1-carboxamide] | 3.1 | 27 | 0.48 | – | –
9 | Cc1ncnc2ccc(-c3sc(NC(=O)N4CCN(C(C)C#N)CC4)nc3-c3cccc(C#N)c3)cc12 (stereo not drawn) [Example 7.5, 4-(1-Cyanoethyl)-N-[4-(3-cyanophenyl)-5-(4-methylquinazolin-6-yl)thiazol-2-yl]piperazine-1-carboxamide] | 1.2 | 9 | 0.21 | – | –
10 | N#Cc1cccc(-c2nc(NC(=O)N3CC4(COC4)C3)sc2-c2ccc3ncncc3c2)c1 [Example 10, N-[4-(3-Cyanophenyl)-5-quinazolin-6-yl-thiazol-2-yl]-2-oxa-6-azaspiro[3.3]heptane-6-carboxamide] | 4.7 | 7 | 0.85 | – | –
11 | Cc1cc(-c2sc(NC(=O)N3CC4(COC4)C3)nc2-c2cccc(C#N)c2)c2ccn(C)c2n1 [Example 24, N-[4-(3-Cyanophenyl)-5-(1,6-dimethylpyrrolo[2,3-b]pyridin-4-yl)thiazol-2-yl]-2-oxa-6-azaspiro[3.3]heptane-6-carboxamide] | 7.2 | 245 | 10.5 | – | –
12 | Cc1cc(-c2sc(NC(=O)N3CC4(COC4)C3)nc2-c2cccc(C#N)c2)cc2cnn(C)c12 [Example 30, N-[4-(3-Cyanophenyl)-5-(1,7-dimethylindazol-5-yl)thiazol-2-yl]-2-oxa-6-azaspiro[3.3]heptane-6-carboxamide] | 13.2 | 14 | 0.59 | – | –
13 | Cc1ncnc2ccc(-c3sc(NC(=O)N4CCN[C@H](C(C)(C)O)C4)nc3-c3cccc(C#N)c3)cc12 [Example 7.16, (3S)-N-[4-(3-Cyanophenyl)-5-(4-methylquinazolin-6-yl)thiazol-2-yl]-3-(1-hydroxy-1-methyl-ethyl)piperazine-1-carboxamide] | 2.6 | 17 | 0.18 | – | –
14 | Cc1ncnc2ccc(-c3sc(NC(=O)N4CCOC(CN(C)C)C4)nc3-c3cccc(C#N)c3)cc12 (stereo not drawn) [Example 7.8, N-[4-(3-Cyanophenyl)-5-(4-methylquinazolin-6-yl)thiazol-2-yl]-2-[(dimethylamino)methyl]morpholine-4-carboxamide] | 2.4 | 13 | 0.14 | – | –
15 | Cc1cc(-c2sc(NC(=O)N3CC4(COC4)C3)nc2-c2cccc(C#N)c2)cn2ccnc12 [Example 29, N-[4-(3-Cyanophenyl)-5-(8-methylimidazo[1,2-a]pyridin-6-yl)thiazol-2-yl]-2-oxa-6-azaspiro[3.3]heptane-6-carboxamide] | 1.3 | 4 | 1.88 | – | –
16 | Cc1ncnc2ccc(-c3sc(NC(=O)N4CCO[C@H](C(C)(C)O)C4)nc3-c3cccc(C#N)c3)cc12 (single isomer, unassigned) [Example 7.7a, (2S)—N-[4-(3-Cyanophenyl)-5-(4-methylquinazolin-6-yl)thiazol-2-yl]-2-(1-hydroxy-1-methyl-ethyl)morpholine-4-carboxamide or (2R)—N-[4-(3-cyanophenyl)-5-(4-methylquinazolin-6-yl)thiazol-2-yl]-2-(1-hydroxy-1-methyl-ethyl)morpholine-4-carboxamide] | 1.1 | 4 | 0.1 | – | –
17 | Cc1ncnc2ccc(-c3sc(NC(=O)N4CC5CCCN(C)C5C4)nc3-c3cccc(C#N)c3)cc12 (stereo not drawn) [Example 7.11, N-[4-(3-Cyanophenyl)-5-(4-methylquinazolin-6-yl)thiazol-2-yl]-1-methyl-3,4,4a,5,7,7a-hexahydro-2H-pyrrolo[3,4-b]pyridine-6-carboxamide] | 5.4 | 98 | 0.54 | – | –
18 | Cc1ncnc2ccc(-c3sc(NC(=O)N4CCN(C(C)(C)C#N)CC4)nc3-c3cccc(C#N)c3)cc12 [Example 7.2, 4-(1-Cyano-1-methyl-ethyl)-N-[4-(3-cyanophenyl)-5-(4-methylquinazolin-6-yl)thiazol-2-yl]piperazine-1-carboxamide] | 1.5 | 9 | 0.2 | – | –
19 | Cc1ncnc2ccc(-c3sc(NC(=O)N4CCN(CC#N)CC4)nc3-c3cccc(C#N)c3)cc12 [Example 7.15, 4-(Cyanomethyl)-N-[4-(3-cyanophenyl)-5-(4-methylquinazolin-6-yl)thiazol-2-yl]piperazine-1-carboxamide] | 1.1 | 14 | 0.18 | – | –
20 | Cc1nc(C)c(-c2sc(NC(=O)N3CCC(C)(C#N)CC3)nc2-c2cccc(C#N)c2)o1 [Example 14, 4-Cyano-N-[4-(3-cyanophenyl)-5-(2,4-dimethyloxazol-5-yl)thiazol-2-yl]-4-methyl-piperidine-1-carboxamide] | 2.8 | 12 | 0.42 | – | –
21 | Cc1ncnc2ccc(-c3sc(NC(=O)N4CC[C@](C)(C#N)C4)nc3-c3cccc(C#N)c3)cc12 [Example 1, (3S)-3-Cyano-N-[4-(3-cyanophenyl)-5-(4-methylquinazolin-6-yl)thiazol-2-yl]-3-methyl-pyrrolidine-1-carboxamide] | 0.9 | 2 | 0.12 | – | –
22 | Cc1ncnc2ccc(-c3sc(NC(=O)N4CCCNCC4)nc3-c3cccc(C#N)c3)cc12 [Example 7.18, N-[4-(3-Cyanophenyl)-5-(4-methylquinazolin-6-yl)thiazol-2-yl]-1,4-diazepane-1-carboxamide] | 2.2 | 11 | 0.38 | – | –
